Assay results from PubChem BioAssay (NCI).
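Tested at 5 concentrations; 48 h exposure; 96-well plates; endpoints linearly interpolated, else capped at highest concentration. GI50 marks 50% less growth. TGI: total growth inhibition.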

Assays:
Test in all cases: growth of human tumour cells (NCI), 48 h
OVCAR-5 ovarian = test system: OVCAR-5 ovarian
SNB-75 CNS = test system: SNB-75 CNS
TK-10 renal = test system: TK-10 renal
A498 renal = test system: A498 renal
NCI-H522 lung = test system: NCI-H522 lung
COLO 205 colon = test system: COLO 205 colon
786-0 renal = test system: 786-0 renal
RXF 393 renal = test system: RXF 393 renal
LOX IMVI melanoma = test system: LOX IMVI melanoma
SR leukemia = test system: SR leukemia

Compound	GI50 (OVCAR-5 ovarian)	TGI (OVCAR-5 ovarian)	GI50 (SNB-75 CNS)	TGI (SNB-75 CNS)	GI50 (TK-10 renal)	TGI (TK-10 renal)	GI50 (A498 renal)	TGI (A498 renal)	GI50 (NCI-H522 lung)	TGI (NCI-H522 lung)	GI50 (COLO 205 colon)	TGI (COLO 205 colon)	GI50 (786-0 renal)	TGI (786-0 renal)	GI50 (RXF 393 renal)	TGI (RXF 393 renal)	TGI (LOX IMVI melanoma)	TGI (SR leukemia)	GI50 (SR leukemia)	GI50 (LOX IMVI melanoma)
CCCCCCCCN(CCCCCCCC)C(=N)c1ccnc2ccccc12	1.5 µM	3.05 µM	1.01 µM	2.36 µM	1.44 µM	2.83 µM	1.41 µM	2.85 µM	1.48 µM	2.92 µM	0.2 µM	0.445 µM	1.02 µM	2.37 µM	0.874 µM	2.36 µM				
CC1(C)CCC(=O)c2c(O)ccc(O)c21		> 100 µM		98.3 µM		> 100 µM				> 100 µM		> 100 µM		> 100 µM		77.7 µM				
CN1CCC23c4c5ccc(O)c4OC2C(=NN=C2CCC4(O)C6Cc7ccc(O)c8c7C4(CCN6C)C2O8)CCC3(O)C1C5 (stereo not given)		> 100 µM		> 100 µM		> 100 µM		> 100 µM		> 100 µM		> 100 µM		> 100 µM			> 100 µM			
CC(C)C1C(=O)N2CCCC2C2(O)OC(NC(=O)C3C=C4c5cccc6[nH]cc(c56)CC4N(C)C3)(C(C)C)C(=O)N12 (stereo not given)		29.7 µM		76.7 µM		68.6 µM				74.5 µM		51.5 µM		33 µM			34.8 µM	68.3 µM		
CON(C)C(=O)C(Cc1ccccc1)NC(=O)OC(C)(C)C (stereo not given)		> 100 µM		> 100 µM		> 100 µM		> 100 µM				> 100 µM		> 100 µM		> 100 µM		> 100 µM		
CN1C(=O)n2c(nc3ccccc32)C(N=[N+]=[N-])(N=[N+]=[N-])C1=O (stereo not given)		> 100 µM		> 100 µM		> 100 µM		> 100 µM		> 100 µM		> 100 µM		> 100 µM		> 100 µM	> 100 µM			
COc1cc(C(=O)C/C(CCC(=O)Nc2ccccc2[N+](=O)[O-])=N\NC(=O)C(N)=O)ccc1O		> 100 µM				> 100 µM						> 100 µM		> 100 µM		> 100 µM	> 100 µM	> 100 µM		
CCCCCCCCCOC(=S)NC		38.1 µM		73.7 µM		54.6 µM		48.8 µM		31.2 µM		49.2 µM		33.5 µM			35.5 µM			
CCOC(=O)/C(=C/c1ccc(OC)c(OC)c1)C(=O)c1ccccc1		40.6 µM		28.5 µM		65.4 µM		46.5 µM		29.1 µM		31.1 µM		> 100 µM						
O=c1ncc(-c2ccc(C(F)(F)F)cc2)c(NC2CCCCCC2)[nH]1	22.9 µM	48.3 µM	13.7 µM	33.4 µM	35.7 µM	73.9 µM	16.1 µM	34 µM	19.7 µM	44.4 µM	19.6 µM	34.7 µM	23.6 µM	52.4 µM	15.8 µM	31.8 µM		38.3 µM	16.3 µM	
COc1cc2c(c(OC)c1OC)-c1ccc([O-])c(=O)cc1[C@@H](NC(C)=O)CC2.COc1cc2c(c(OC)c1OC)-c1ccc([O-])c(=O)cc1[C@@H](NC(C)=O)CC2.[Cu+2]	14.8 µM	> 100 µM	5.39 µM	> 100 µM	9.55 µM	> 100 µM	2.41 µM	8.53 µM			2.82 µM	9.19 µM	7.9 µM	> 100 µM	3.87 µM	> 100 µM	> 100 µM	6.89 µM	1.54 µM	4.3 µM
Cc1ccc(-c2csc(N(C(=O)N3CCN(c4cc5c(cc4F)c(=O)c(C(=O)O)cn5C4CC4)CC3)c3ccccc3)n2)cc1			0.357 µM	4.17 µM	0.541 µM	11.5 µM	0.0363 µM	0.443 µM	0.292 µM	> 100 µM			0.292 µM	1.83 µM	0.368 µM	20.5 µM	> 100 µM	> 100 µM	0.238 µM	0.305 µM
CC(C)(Cl)CCC1=C(Cl)C(=O)c2ccccc2C1=O	2.25 µM	5.6 µM	1.69 µM	6.44 µM			1.85 µM	12 µM	0.586 µM	1.91 µM	2.07 µM	4.12 µM	3.41 µM	10.7 µM			3.26 µM	5.69 µM	2.04 µM	1.73 µM
CCN1C(=O)N(CC)C2C1NN=c1s/c(=C3\C(=O)N(CCC(C)C)c4ccccc43)c(=O)n12 (stereo not given)			0.802 µM	2.5 µM	9.44 µM	71.7 µM	0.477 µM	2.59 µM	1.01 µM	4.18 µM			1.83 µM	4.5 µM	0.738 µM	3.62 µM		> 100 µM	0.456 µM	
CCOC(=O)C1Cc2c(ccc(OC)c2OC)C(=O)C1N (stereo not given)		> 100 µM		> 100 µM		> 100 µM				> 100 µM		> 100 µM		> 100 µM		> 100 µM	> 100 µM	> 100 µM		
COc1ccccc1/C=C/C(=O)c1sc(-c2cccnc2)nc1C		> 100 µM		> 100 µM		> 100 µM		> 100 µM		> 100 µM		> 100 µM		> 100 µM		> 100 µM	> 100 µM			
O=C(O)/C(Cl)=C(\Cl)Nc1cccc(C(F)(F)F)c1				> 100 µM		> 100 µM						> 100 µM		> 100 µM		> 100 µM	> 100 µM			
COc1cc2[nH]c(C(=O)c3cc(OC)c(OC)c(OC)c3)c(N)c2cc1C#CCO	3.63 µM	> 100 µM			44.1 µM	> 100 µM	0.23 µM	2.14 µM			0.268 µM	0.842 µM	0.373 µM	> 100 µM			21.5 µM	19.8 µM	0.284 µM	0.502 µM
C=C1C(=O)O[C@@H]2[C@H]1CC[C@H](C)[C@]1(O)CCC(=O)[C@@]21C				> 10 µM		> 10 µM						> 10 µM		> 10 µM		> 10 µM	> 10 µM	> 10 µM		
